In PMC9864776, “Synthesis of Novel Polymer-Assisted Organic-Inorganic Hybrid Nanoflowers and Their Application in Cascade Biocatalysis” (Molecules, 2023):

Target: T1, horseradish peroxidase (HRP) (Armoracia rusticana, UniProt P00433)
T1 construct: gene PRXC1A; commercial native enzyme from horseradish, Alfa Aesar; free in solution, together with GOx
T1 sequence (P00433 31-338): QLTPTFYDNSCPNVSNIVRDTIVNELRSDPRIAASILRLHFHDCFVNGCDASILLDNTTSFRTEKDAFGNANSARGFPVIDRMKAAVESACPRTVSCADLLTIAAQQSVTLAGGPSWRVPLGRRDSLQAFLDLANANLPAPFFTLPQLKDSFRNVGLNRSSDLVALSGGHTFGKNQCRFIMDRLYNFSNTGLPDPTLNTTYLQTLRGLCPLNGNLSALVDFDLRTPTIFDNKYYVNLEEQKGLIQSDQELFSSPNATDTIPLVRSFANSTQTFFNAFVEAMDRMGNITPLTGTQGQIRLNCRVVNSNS
Assay: GOx/HRP cascade, TMB oxidation by H2O2 formed by GOx, absorbance at […] nm
Assay type: biochemical
Conditions: H2O2 from GOx and glucose, 0.2 M acetate buffer pH 4, 20-23 °C; free enzymes

Cc1cc(-c2cc(C)c(N)c(C)c2)cc(C)c1N [TMB, 3,3′,5,5′-tetramethylbenzidine] was tested, and the “GOx/HRP cascade, TMB oxidation by H2O2 formed by GOx, absorbance at 652 nm” value was “the HRP used this H2O2 to oxidize a chromophore compound (TMB)”.
